Test results taken from patent publication US10940139B2, “Compounds that interact with the Ras superfamily for the treatment of cancers, inflammatory diseases, rasopathies, and fibrotic disease” (Shy Therapeutics LLC, priority 2017, dated 2021).

Columns and labels:
[1] = tested on: TNFα production in RAW 264.7 macrophage cell line; assay: Mouse TNF alpha quantification assay (LPS-stimulated macrophages, ELISA); type: cell-based; settings: RAW264.7, RAW 264.7 murine leukemia virus transformed macrophage cell lines, LPS stimulation, read-out: TNF-α % Inhibition at 30 μM
[2] = tested on: IL6 production in RAW 264.7 macrophage cell line; assay: Mouse IL6 quantification assay (LPS-stimulated macrophages, ELISA); type: cell-based; settings: RAW264.7, RAW 264.7 murine leukemia virus transformed macrophage cell lines, LPS stimulation, read-out: IL-6 % Inhibition at 30 μM

Row | SMILES | inhibition at 30 µM [1] [%] | inhibition at 30 µM [2] [%]
1 | Cc1sc2c(O)nc(-c3nccn3C)nc2c1-c1cccc(C(F)(F)F)c1 [drawing 2426] | 0 | 0
2 | c1ccc(-c2csc3nc(-c4ccccn4)nc(N4CCN(Cc5cccnc5)CC4)c23)cc1 [drawing 2139] | 51 to 75 | 76 to 100
3 | Oc1nc(-c2ccccn2)nc2c(-c3cnc4ccccc4c3)csc12 [drawing 2300] | 1 to 25 | 76 to 100
4 | COCCNc1nc(-c2ccccn2)nc2c1c(-c1ccccc1)nn2-c1ccccn1 [drawing 2365] | 51 to 75 | 76 to 100
5 | Cc1ccc(-c2cc3nc(-c4ccccn4)nc(O)c3s2)cc1 [drawing 2382] | 1 to 25 | 1 to 25
6 | Cn1ccnc1-c1nc(O)c2scc(-c3ccc(F)cc3F)c2n1 [drawing 2443] | 1 to 25 | 51 to 75
7 | O=C(c1csc2c(O)nc(-c3ccccn3)nc12)N1CCNC(c2ccccc2Cl)C1 (centres unmarked) [drawing 2216] | 0 | 51 to 75
8 | O=C(Nc1nc(-c2ccccn2)cs1)c1cccnc1 [drawing 2017] | 1 to 25 | 1 to 25
9 | O=C(CC(c1ccccc1)c1ccccc1)N1CCCc2c(O)nc(-c3ccccn3)nc21 [drawing 2086] | 0 | 26 to 50
10 | COC(=O)c1cncc(C(=O)Nc2nnc(-c3ccccn3)[nH]2)c1 [drawing 1981] | 1 to 25 | 1 to 25
11 | COc1cnc(C2CCCN2)nc1O (centres unmarked) [drawing 2308] | 1 to 25 | 1 to 25
12 | Cc1cc2nc(-c3ccccn3)nc(N)c2s1 [drawing 2229] | 1 to 25 | 1 to 25
13 | Nc1nc(O)c2sc(-c3cccc(C(=O)NCc4ncc[nH]4)c3)cc2n1 [drawing 2372] | 0 | 0
14 | COCCNc1nc(-c2cn(C)cn2)nc2sc(-c3ccncc3)c(-c3ccccc3)c12 [drawing 2357] | 1 to 25 | 51 to 75
15 | O=C(Nc1nc(-c2ccccn2)cs1)c1ccncc1 [drawing 2019] | 1 to 25 | 26 to 50
16 | CCN(CC)C(=O)CN1CCN(c2nc(-c3ccccn3)nc3scc(-c4ccccc4)c23)CC1 [drawing 2150] | 51 to 75 | 76 to 100
17 | CON(C)c1nc(-c2ccccn2)nc2scc(-c3ccccc3)c12 [drawing 2147] | 1 to 25 | 26 to 50
18 | O=C(c1csc2c(O)nc(-c3ccccn3)nc12)N1CCC(c2cccc(O)c2)C1 (centres unmarked) [drawing 2233] | 26 to 50 | 76 to 100
19 | COC(=O)c1cc(NCc2nc(CC(C)C)no2)ccc1Cl [drawing 2047] | 1 to 25 | 26 to 50
20 | COCCCC1CCN(C(=O)c2csc3c(O)nc(N)nc23)CC1 [drawing 2092] | 1 to 25 | 0
21 | COc1cnc(CNC(=O)c2sc3c(O)nc(-c4ccccn4)nc3c2C)[nH]c1=O [drawing 2351] | 1 to 25 | 1 to 25
22 | O=C(CCCc1cccnc1)N1CCCc2c(O)nc(-c3ccccn3)nc21 [drawing 2088] | 1 to 25 | 76 to 100
23 | COc1cnc(CN)[nH]c1=O [drawing 2212] | 1 to 25 | 0
24 | O=C(COCc1ccccc1Cl)Nc1nnc(-c2ccccn2)[nH]1 [drawing 1973] | 1 to 25 | 26 to 50
25 | Cn1ccc(C(=O)Nc2nnc(-c3ccccn3)[nH]2)cc1=O [drawing 1945] | 1 to 25 | 0

Row | SMILES | inhibition at 30 µM [1] [%] | inhibition at 30 µM [2] [%]
26 | O=C(Nc1nnc(-c2ccccn2)[nH]1)C1CC1c1ccc(F)cc1 (centres unmarked) [drawing 1974] | 1 to 25 | 1 to 25
27 | COc1cnc(CNC(=O)c2csc3c(O)nc(-c4ccccn4)nc23)[nH]c1=O [drawing 2347] | 0 | 1 to 25
28 | N#CCc1ccc(OCC(=O)Nc2nnc(-c3ccccn3)[nH]2)cc1 [drawing 1998] | 1 to 25 | 0
29 | Oc1nc(-c2ccccn2)nc2c(-c3ccccc3)csc12 [drawing 2120] | 51 to 75 | 76 to 100
30 | Cc1sc2c(O)nc(-c3ccccn3)nc2c1C(=O)N1CCN(c2ccccc2)CC1C (centres unmarked) [drawing 2333] | 0 | 1 to 25
31 | CC(C)c1nn(C)cc1-c1csc2c(O)nc(-c3ccccn3)nc12 [drawing 2322] | 1 to 25 | 76 to 100
32 | C[C@H](NS(=O)(=O)c1ccccc1F)C(=O)Nc1nnc(-c2ccccn2)[nH]1 [drawing 1947] | 1 to 25 | 51 to 75
33 | Oc1nc(-c2ccccn2)nc2c(-c3cc(CN4CCCC4)ccc3F)csc12 [drawing 2324] | 0 | 51 to 75
34 | COc1ccc(-c2c(C)sc3c(O)nc(-c4nccn4C)nc23)cn1 [drawing 2428] | 1 to 25 | 1 to 25
35 | O=c1nc(-c2ccccn2)[nH]c2scc(-c3ccccc3Cl)c12 [drawing 2025] | 1 to 25 | 0
36 | O=C(c1csc2c(O)nc(-c3ccccn3)nc12)N1CCN(Cc2ccc(O)c(Cl)c2)CC1 [drawing 2190] | 1 to 25 | 76 to 100
37 | COc1c(O)nc(-c2ccccn2)nc1Oc1cccc(C(F)(F)F)c1 [drawing 2384] | 26 to 50 | 1 to 25
38 | O=C(COc1ccccc1)N1CCCc2c(O)nc(-c3ccccn3)nc21 [drawing 2071] | 1 to 25 | 76 to 100
39 | Cc1noc(C)c1CC(=O)Nc1nnc(-c2ccccn2)[nH]1 [drawing 1957] | 0 | 1 to 25
40 | COc1cc2c(cc1OC)CCN(C(=O)c1csc3c(O)nc(N)nc13)CC2 [drawing 2099] | 1 to 25 | 1 to 25
41 | O=C(Nc1nnc(-c2ccccn2)[nH]1)c1ccc(=O)[nH]n1 [drawing 2003] | 1 to 25 | 26 to 50
42 | COCCNc1nc(-c2nccn2C)nc2sc(C3CCOCC3)c(-c3ccccc3)c12 [drawing 2417] | 76 to 100 | 76 to 100
43 | Cc1ccc(OC2CCCC2)c(-c2csc3c(O)nc(-c4ccccn4)nc23)c1 [drawing 2237] | 51 to 75 | 76 to 100
44 | COc1ccc(CCC(=O)N2CCCc3c(O)nc(-c4ccccn4)nc32)cc1 [drawing 2073] | 26 to 50 | 76 to 100
45 | O=C(c1csc2c(O)nc(-c3ccccn3)nc12)N1CCNC(Cc2ccc(F)cc2)C1 (centres unmarked) [drawing 2224] | 1 to 25 | 26 to 50
46 | Cc1sc2c(O)nc(-c3nccn3C)nc2c1-c1ccc(OCC(C)C)nc1 [drawing 2427] | 1 to 25 | 1 to 25
47 | O=C(CN1CCN(c2nc(-c3ccccn3)nc3scc(-c4ccccc4)c23)CC1)N1CCCC1 [drawing 2157] | 1 to 25 | 1 to 25
48 | O=C(Nc1nnc(-c2ccccn2)[nH]1)C1CCCN(c2cnccn2)C1 (centres unmarked) [drawing 1979] | 1 to 25 | 1 to 25
49 | CCN(CC)S(=O)(=O)c1cc(C)c(C)c(NC(=O)CCc2c(C)nc(-c3ccccn3)nc2O)c1 [drawing 2037] | 1 to 25 | 0
